Assay results: patent US20240383915A1, “OXAZEPINE COMPOUNDS AND USES THEREOF IN THE TREATMENT OF CANCER” (Genentech, Inc., priority 2021, published 2024)

How the values were obtained:
[1] = molecular target: KRAS G12D (Homo sapiens (Human), UniProt P01116, G12D); experiment: KRas (G12D) GDP HTRF (BODIPY-GDP exchange TR-FRET); format: biochemical
Protocol: (§1) KRAS Biochemical Assay—BODIPY-GDP Exchange TR-FRET. Biochemical compound potencies were assessed by evaluating inhibition of SOS1-mediated nucleotide exchange in KRAS G12D. The SOS1-promoted exchange of fluorescently-labeled GDP (BODIPY-GDP) was monitored by time-resolved fluorescence resonance energy transfer (TR-FRET). Compounds solubilized in DMSO were dispensed as concentration series into 384-well white assay plates. A preformed complex of biotin-tagged recombinant human KRAS (1.5 nM mutant G12D or wild type) and 0.15 nM terbium-labeled streptavidin (CisBIO) prepared in 10 μL/well assay buffer (20 mM HEPES, pH 7.5, 50 mM NaCl, 10 mM MgCl2, 0.01% Tween-20 and 1 mM dithiothreitol) was added and allowed to incubate for 10-minutes. The reaction was initiated with the addition of 5 μL of 3 nM recombinant human SOS1 and 300 nM BODIPY-GDP in assay buffer. After a 60-minute incubation, the fluorescence was measured with excitation at 337 nm and emission at 490 and 520 nm. The TR-FRET ratio was determined as the fluorescence at 520 nm divided by the fluorescence at 490 nm multiplied by 10,000. […] The normalized TR-FRET results were plotted against compound concentration, and the data fit to a 4-parameter Hill equation to determine the IC50 values.

[2] = molecular target: KRAS wild type (Homo sapiens (Human), UniProt P01116); experiment: KRas (wt) GDP HTRF (BODIPY-GDP exchange TR-FRET); format: biochemical
Chain of KRAS wild type (P01116-2 other isoform, or with tags, fused parts or gaps): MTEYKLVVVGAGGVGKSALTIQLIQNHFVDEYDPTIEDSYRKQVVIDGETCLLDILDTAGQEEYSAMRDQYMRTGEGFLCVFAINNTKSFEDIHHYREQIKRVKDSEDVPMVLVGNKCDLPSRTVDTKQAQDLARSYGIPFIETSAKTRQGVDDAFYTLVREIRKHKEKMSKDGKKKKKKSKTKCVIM
Protocol: as §1

[3] = molecular target: Raf-RBD/KRAS G12D interaction (Homo sapiens (Human), UniProt P01116, G12D); experiment: KRAS G12D NanoBRET assay; format: cell-based; details: HCT116
Chain of Raf-RBD/KRAS G12D interaction (P01116-2 other isoform, or with tags, fused parts or gaps G12D): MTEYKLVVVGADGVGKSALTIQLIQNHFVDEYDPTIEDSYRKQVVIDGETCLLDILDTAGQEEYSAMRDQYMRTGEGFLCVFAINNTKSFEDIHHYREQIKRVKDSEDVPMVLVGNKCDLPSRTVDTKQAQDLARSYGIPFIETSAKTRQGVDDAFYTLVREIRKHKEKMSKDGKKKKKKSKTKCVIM
Protocol: KRAS G12D NanoBRET Assay. Cellular target engagement was assessed by monitoring inhibition of the Raf-RBD/KRAS G12D interaction in a NanoBRET™ assay (Promega). […] Cells were seeded into 384-well white tissue culture-treated assay plates in 40 μL culture medium (RPMI-1640 with 10% fetal bovine serum, 2 mM glutamine, […] puromycin, and 4 ng/mL blasticidin) with doxycycline to induce KRAS G12D-nanoluciferase expression over 20-24 h at 37° C., 5% CO2. The culture medium was then removed and replaced with assay medium (Opti-MEM® with 4% fetal bovine serum) and 0.1 μM HaloTag618 ligand. During the subsequent 4 h incubation at 37° C., 5% CO2, the HaloTag618 ligand binds to the Halotag-labeled KRAS G12D. Compounds solubilized in DMSO were then added as dilution series to the wells in a total volume of 160 nL (0.4% DMSO final), and the plates were incubated overnight at 37° C., 5% CO2. In the final step, 10 μL NanoGlo substrate in Opti-MEM was added to each well, and the emission read at 460 nm (luciferase signal) and 610 nm (NanoBRET signal) on an EnVision plate reader (PerkinElmer). The Raf-RBD/KRAS G12D interaction results in bioluminescence resonance energy transfer (BRET) from the product of the luciferase reaction in the vicinity of the Raf-RBD to the HaloTag ligand acceptor on the KRAS G12D and generates the NanoBRET signal. Binding of compounds to KRAS G12D and disruption of its interaction with Raf-RBD results in reduction of this signal. The luciferase signal and NanoBRET signal for compound wells were divided by the average corresponding signal for DMSO control wells. Then the NanoBRET ratio was calculated by dividing the control-adjusted NanoBRET signal by the similarly adjusted luciferase signal. […] The normalized NanoBRET ratio results were plotted against compound concentration, and the data fit to a 4-parameter Hill equation to determine the IC50 values.

[4] = system: KRAS G12D human pancreatic cell lines (AsPC-1 and SW1990); experiment: KRAS 3D-cell proliferation assay, CTG panel (G12D); format: cell-based; details: 168 h, CellTiter-Glo 3D, 7 days
Protocol: (§2) KRAS 3D-Cell Proliferation Assays. Cellular potencies of compounds were assessed by evaluating inhibition of proliferation in 3D cultures of homozygous mutant KRAS G12D human pancreatic cell lines (AsPC-1 and SW1990) as compared to a KRAS wild type human lung adenocarcinoma cell line (PC-9). Cells were seeded into 384-well black round-bottom, ultra-low attachment assay plates in 50 μL cell growth medium (RPMI-1640 with 10% fetal bovine serum and 2 mM L-glutamine). After overnight incubation at 37° C. and 5% CO2, compounds solubilized in DMSO were added as dilution series to the wells in a total volume of 150 nL (0.3% DMSO final). The cells were incubated for 7 days at 37° C. and 5% CO2. Cell proliferation was quantitated by addition of 40 μL/well of CellTiter-Glo® 3D (Promega). This reagent in combination with mechanical disruption releases the cellular ATP to promote activity in a luciferase-based enzyme/substrate chemiluminescent detection system. After a 25-minute incubation under ambient conditions with shaking and an additional 10 minutes without shaking, the contents of the wells were mixed by pipetting up and down repeatedly to disrupt the spheroids, and then the plates were centrifuged to remove bubbles. The plates were incubated for another 15 minutes under ambient conditions, and the luminescence read on a plate reader (e.g. EnVision [PerkinElmer]). […] The normalized luminescence results were plotted against compound concentration, and the data fit to a 4-parameter Hill equation to determine the IC50 values.

[5] = system: KRAS wild type human lung adenocarcinoma cell line (PC-9); experiment: KRAS 3D-cell proliferation assay, CTG panel non G12D; format: cell-based; details: 168 h, CellTiter-Glo 3D, 7 days
Protocol: as §2

[6] = molecular target: KRas(G12V) (Homo sapiens (Human), UniProt P01116, G12V); experiment: KRas(G12V) GDP HTRF (BODIPY-GDP exchange TR-FRET); format: biochemical
Chain of KRas(G12V) (P01116-2 other isoform, or with tags, fused parts or gaps G12V): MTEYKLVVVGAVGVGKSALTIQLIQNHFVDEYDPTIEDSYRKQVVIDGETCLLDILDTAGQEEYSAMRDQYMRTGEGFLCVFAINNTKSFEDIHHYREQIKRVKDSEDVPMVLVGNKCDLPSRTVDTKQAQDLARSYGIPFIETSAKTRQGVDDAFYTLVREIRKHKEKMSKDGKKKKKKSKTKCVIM

[7] = molecular target: KRas (Homo sapiens (Human), UniProt P01116); experiment: KRas GDP HTRF (BODIPY-GDP exchange TR-FRET); format: biochemical
Chain of KRas (P01116-2 other isoform, or with tags, fused parts or gaps): as the sequence (P01116-2 other isoform, or with tags, fused parts or gaps) above
How it was run: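 Inhibition of SOS1-mediated exchange of BODIPY-GDP on KRAS G12D, started with 3 nM recombinant human SOS1 and 300 nM BODIPY-GDP and read after 60 min. TR-FRET excitation 337 nm, ratio 520/490 nm ×10,000. IC50 from 4-parameter Hill fit of normalized data.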

[8] = system: SW480 cells; experiment: SW480 proliferation assay; format: cell-based; details: Homo sapiens, SW480, SW480; read-out: SW480 Prolif IC50 (G12V)
[9] = system: PC-9 cells; experiment: PC9 proliferation assay; format: cell-based, human; details: Homo sapiens, PC-9, PC9; read-out: PC9 Prolif IC50 (G12V)

Chain of KRAS G12D (P01116-2 other isoform, or with tags, fused parts or gaps G12D): as the sequence (P01116-2 other isoform, or with tags, fused parts or gaps G12D) above

SMILES	IC50 [1] [nM]	IC50 [2] [nM]	IC50 [3] [nM]	IC50 [4] [nM]	IC50 [5] [nM]	IC50 [6] [nM]	IC50 [7] [nM]	IC50 [8] [nM]	IC50 [9] [nM]
Cc1cc(N)nc(-c2cc3ncnc4c3c(c2Cl)OC[C@H](CC#N)N4C2CCNC2)c1C(F)(F)F (single isomer, unassigned) [Example 507]	276	8650	≥ 10000	–	–	–	–	–	–
Cc1cc(N)nc(-c2cc3ncnc4c3c(c2Cl)OC[C@H](CC#N)N4C2CCNC2)c1C(F)(F)F (single isomer, unassigned) [Example 508]	472	8110	≥ 10000	–	–	–	–	–	–
Cc1cc(N)nc(-c2c(Cl)c3c4c(nc(OCC56COC(CF)(C5)C6)nc4c2F)N([C@H](C)c2cccnc2N)CCO3)c1C(F)(F)F [Example 154, 6-((R)-4-((R)-1-(2-aminopyridin-3-yl)ethyl)-8-chloro-10-fluoro-2-((1-(fluoromethyl)-2-oxabicyclo[2.1.1]hexan-4-yl)methoxy)-5,6-dihydro-4H-[1,4]oxazepino[5,6,7-de]quinazolin-9-yl)-4-methyl-5-(trifluoromethyl)pyridin-2-amine]	–	–	–	–	–	0.48	1.1	91	14000
Cc1cc(N)nc(-c2c(Cl)c3c4c(nc(OCC56CCC(CC5)OC6)nc4c2F)N([C@H](C)c2cccnc2N)CCO3)c1C(F)(F)F [Example 157, 6-((R)-2-((2-oxabicyclo[2.2.2]octan-4-yl)methoxy)-4-((R)-1-(2-aminopyridin-3-yl)ethyl)-8-chloro-10-fluoro-5,6-dihydro-4H-[1,4]oxazepino[5,6,7-de]quinazolin-9-yl)-4-methyl-5-(trifluoromethyl)pyridin-2-amine]	–	–	–	–	–	0.81	3.2	400	8200
Cc1cc(N)nc(-c2cc3ncnc4c3c(c2Cl)OCCN4CCN(C)C)c1C(F)(F)F [Example 501, 6-(8-Chloro-4-(2-(dimethylamino)ethyl)-5,6-dihydro-4H-[1,4]oxazepino[5,6,7-de]quinazolin-9-yl)-4-methyl-5-(trifluoromethyl)pyridin-2-amine]	4160	109000	≥ 10000	–	–	–	–	–	–
Cc1cc(N)nc(-c2cc3ncnc4c3c(c2Cl)OCCN4CCN(C)CCO)c1C(F)(F)F [Example 502, 2-((2-(9-(6-Amino-4-methyl-3-(trifluoromethyl)pyridin-2-yl)-8-chloro-5,6-dihydro-4H-[1,4]oxazepino[5,6,7-de]quinazolin-4-yl)ethyl)(methyl)amino)ethan-1-ol]	2770	71400	≥ 10000	9650	7880	–	–	–	–
CNCCN1CCOc2c(Cl)c(-c3nc(N)cc(C)c3C(F)(F)F)cc3ncnc1c23 [Example 503]	4620	94300	≥ 10000	–	–	–	–	–	–
Cc1cc(N)nc(-c2cc3ncnc4c3c(c2Cl)OCCN4CCN2CCOCC2)c1C(F)(F)F [Example 504]	3460	15100	≥ 10000	14900	18500	–	–	–	–
Cc1cc(N)nc(-c2cc3ncnc4c3c(c2Cl)OCCN4C2CCNC2)c1C(F)(F)F (centres unmarked) [Example 505]	1730	66400	≥ 10000	–	–	–	–	–	–
Cc1cc(N)nc(-c2cc3ncnc4c3c(c2Cl)OCCN4C2CCNC2)c1C(F)(F)F (centres unmarked) [Example 506]	2400	55000	≥ 10000	–	–	–	–	–	–
Cc1cc(N)nc(-c2cc3nc(OC[C@@H]4C[C@@H](F)CN4C)nc4c3c(c2Cl)OCCN4CCN(C)C)c1C(F)(F)F [Example 509, 6-(8-Chloro-4-(2-(dimethylamino)ethyl)-2-(((2S,4R)-4-fluoro-1-methylpyrrolidin-2-yl)methoxy)-5,6-dihydro-4H-[1,4]oxazepino[5,6,7-de]quinazolin-9-yl)-4-methyl-5-(trifluoromethyl)pyridin-2-amine]	164	1660	9850	–	–	–	–	–	–
Cc1cc(N)nc(-c2cc3nc(OCC45CCCN4CCC5)nc4c3c(c2Cl)OCCN4CCN(C)C)c1C(F)(F)F [Example 510]	13.6	240	≥ 10000	–	–	–	–	–	–
C=C1CN2CCC[C@@]2(COc2nc3c4c(c(Cl)c(-c5c(F)ccc6cnn(C)c56)cc4n2)OCCN3CCN(C)C)C1 [Example 512]	174	1110	–	–	–	–	–	–	–

Further lines, results first:

IC50 [1] [nM]	IC50 [2] [nM]	IC50 [3] [nM]	IC50 [4] [nM]	IC50 [5] [nM]	IC50 [6] [nM]	IC50 [7] [nM]	IC50 [8] [nM]	IC50 [9] [nM]	SMILES
1.55	10.8	2580	1080	2290	–	–	–	–	C=C1CN2CCC[C@@]2(COc2nc3c4c(c(Cl)c(-c5nc(N)cc(C)c5C(F)(F)F)c(F)c4n2)OCCN3CCN(C)C)C1 (single isomer, unassigned) [Example 513]
817	4120	≥ 10000	–	–	–	–	–	–	C=C1CN2CCC[C@@]2(COc2nc3c4c(c(Cl)c(-c5nc(N)cc(C)c5C(F)(F)F)c(F)c4n2)OCCN3CCN(C)C)C1 (single isomer, unassigned) [Example 514]
11.9	88	≥ 10000	–	7700	–	–	–	–	C=C1CN2CCC[C@@]2(COc2nc3c4c(c(F)c(-c5nc(N)cc(C)c5C(F)(F)F)c(F)c4n2)OCCN3CCN(C)C)C1 (single isomer, unassigned) [Example 523]
480	2680	≥ 10000	–	–	–	–	–	–	C=C1CN2CCC[C@@]2(COc2nc3c4c(c(F)c(-c5nc(N)cc(C)c5C(F)(F)F)c(F)c4n2)OCCN3CCN(C)C)C1 (single isomer, unassigned) [Example 524]
6.07	48.4	8050	2240	2960	–	–	–	–	C=C1CN2CCC[C@@]2(COc2nc3c4c(c(Cl)c(-c5nc(N)cc(C)c5C(F)(F)F)cc4n2)OCCN3CCN(C)C)C1 [Example 511]
3.39	20	–	–	–	–	–	–	–	C=C1CN2CCC[C@@]2(COc2nc3c4c(c(Cl)c(-c5nc(N)cc(C)c5C(F)(F)F)c(F)c4n2)OCCN3C2CCNC2)C1 (some centres unmarked) [Example 515]
29	128	–	–	–	–	–	–	–	C=C1CN2CCC[C@@]2(COc2nc3c4c(c(Cl)c(-c5nc(N)cc(C)c5C(F)(F)F)c(F)c4n2)OCCN3C2CCNC2)C1 (some centres unmarked) [Example 518]
